Reference: patent US20150094225A1, “METHOD OF OBTAINING INFORMATION FOR IDENTIFYING TUMOR CELL UNDERGOING EPITHELIAL-MESENCHYMAL TRANSITION IN SAMPLE, METHOD OF IDENTIFYING TUMOR CELL UNDERGOING EPITHELIAL-MESENCHYMAL TRANSITION IN SAMPLE, METHOD OF DIAGNOSING SUBJECT HAVING TUMOR CELL UNDERGOING EPITHELIAL-MESENCHYMAL TRANSITION AND …” (Samsung Electronics Co., Ltd., priority 2013, published 2015)
Read-outs that look alike come from different tables or passages of the source.

What was measured:
Assay type in all cases: cell-based
[1] = system: breast cancer cells (MCF7); assay: western blotting of EMT-induced MCF7 cells cultured in TSA- or CoCl2-containing medium
[2] = system: breast cancer cells (MCF7); assay: RT-PCR of EMT-induced MCF7 cells cultured in medium including TSA, SB or CoCl2; conditions: for expression of EpCAM / expression of Twist / expression of snail: 0.5 μM TSA or 2.5 mM SB
[3] = system: prostate cancer cells (Du145); assay: western blotting and RT-PCR of EMT-induced DU145 cells cultured in medium including TSA, SB or CoCl2
[4] = system: lung cancer cells (NCI-1650); assay: RT-PCR of EMT-induced NCI-1650 cells cultured in TSA-containing medium; conditions: NCI-1650, RT-PCR, 0.5 μM TSA, one day
[5] = system: lung cancer cells (NCI-1650); assay: western blotting of EMT-induced NCI-1650 cells cultured in TSA-containing medium; conditions: NCI-1650, western blotting, 0.5 μM TSA, one day
[6] = MCF7, RT-PCR, 0.5 μM TSA, 2.5 mM SB or 400 μM CoCl2, one day
[7] = DU145, western blotting/RT-PCR, 0.5 μM TSA, 2.5 mM SB or 400 μM CoCl2, one day
[8] = MCF7, western blotting (FIG. 15: western/RT-PCR not told apart), 0.5 μM TSA or 400 μM CoCl2, one day
[9] = MCF7, RT-PCR, 0.5 μM TSA or 400 μM CoCl2, one day

[Cl-].[Cl-].[Co+2] [CoCl2]
expression of HIF-1α [1]: gradually increased
expression of N-cadherein [1]: gradually increased
expression of snail [1]: gradually increased
expression of ACACA [2]: decreased
expression of ACOT1 [2]: decreased
expression of FASN [2]: decreased
expression of PPARγ [2]: decreased
expression of PTPLB [2]: decreased
expression of SCD1 [2]: increased
expression of ACOT1 [3]: decreased
expression of EpCAM [3]: increased
expression of PTPLB [3]: decreased
expression of SCD1 [3]: increased
expression of snail [3]: increased

CCCC(=O)[O-].[Na+] [SB, sodium butyrate]
expression of EpCAM ([2]; MCF7, RT-PCR, one day): decreased
expression of Twist ([2]; MCF7, RT-PCR, one day): increased
expression of snail ([2]; MCF7, RT-PCR, one day): increased
expression of ACOT1 [2, 6]: decreased
expression of PTPLB [2, 6]: decreased
expression of ACOT1 [3, 7]: decreased
expression of EpCAM [3, 7]: increased
expression of PTPLB [3, 7]: decreased
expression of SCD1 [3, 7]: increased
expression of snail [3, 7]: increased

CC(/C=C/C(=O)NO)=C\[C@@H](C)C(=O)c1ccc(N(C)C)cc1 [TSA, Trichostatin A]
expression of ACOT1 [4]: decreased
expression of PTPLB [4]: decreased
expression of SCD1 [4]: increased
expression of N-cadherein [1, 8]: gradually increased
expression of snail [1, 8]: gradually increased
expression of E-cadherin ([1]; MCF7, western blotting, 0.5 μM TSA, cultured one day): decreased
expression of ACACA [2, 9]: increased
expression of PPARγ [2, 9]: decreased
expression of SCD1 [2, 9]: increased
expression of EpCAM ([2]; MCF7, RT-PCR, one day): decreased
expression of Twist ([2]; MCF7, RT-PCR, one day): increased
expression of snail ([2]; MCF7, RT-PCR, one day): increased
expression of ACOT1 [2, 6]: decreased
expression of PTPLB [2, 6]: decreased
expression of N-cadherin ([2]; MCF7, RT-PCR, 0.5 μM TSA, one day): increased
expression of ACOT1 [3, 7]: decreased
expression of EpCAM [3, 7]: increased
expression of PTPLB [3, 7]: decreased
expression of SCD1 [3, 7]: increased
expression of snail [3, 7]: increased
expression of N-cadherein [5]: gradually increased
expression of Vimentin [5]: gradually increased
expression of snail [5]: gradually increased
